One data set concerns MRSA ATCC 43300. In words: Minimum biofilm inhibition assay. It counts as cell-based, S. aureus. As to the method: The biofilm susceptibility assay and calculation of the percent reduction of AB were performed as described previously (Pettit et al., Antimicrob Agents Chem 2005, 49:2612-17). Biofilm formation was induced by growing MRSA on TSA containing 2% glucose at 37° C. for 24 hrs. After the incubation, culture was used to adjust the cell number to 1-5×10^5 CFU/mL. In parallel, two-fold dilutions of test drug/antibiotic in DMSO/solvent was prepared separately in a PCR dilution plate. 100 μL of CFU adjusted 100 μL of culture was added to 96 well plate by leaving wells for only media control. After adding culture, 2-fold diluted compound in 100% DMSO was added to 96 well plate and plates were incubated another 16-20 hrs at 37° C., to check susceptibility of biofilm forming MRSA with test drug/antibiotic. After susceptibility incubation, Resazurin was added to check inhibition of biofilm forming cells.

A short description of the next data set: Organ exposure in mice. The following applies: mice IV 3 mg/kg.
The test system of a further data set is S. aureus ATCC25923. The experiment in a line: MIC assay, serial dilution. The settings on record: Staphylococcus aureus.
The test system of the next data set is S. epidermidis ATCC14990. The experiment in a line: MIC assay, serial dilution. The following applies: Staphylococcus epidermidis.
In data set [1] the test system is different species of gram-positive bacteria. The experiment in a line: MIC assay, summary over gram-positive species. The settings on record: exception E. faecalis.

A word on the MIC: it is the least concentration at which growth counts as inhibited.

Regarding `CC1(C)C2CN(c3ccc4nc5ccc(N6CC7C(C6)C7(C)C)cc5[s+]c4c3)CC21` (centres unmarked) [Compound 1, 3,7-Di(6,6-dimethyl-3-azabicyclo[3.1.0]hexan-N-yl)phenothiazinium iodide], in the data set on MRSA ATCC 43300 (MRSA ATCC 43300, biofilm forming), the MBIC is given as 0.25. The “concentration inhibiting biofilm forming MRSA” value in the data set with MRSA ATCC 43300 (biofilm forming MRSA) came out at 1 × MIC. Moreover, the “Organ exposure, concentration” value in the data set “Organ exposure in mice” (Brain, 0.5 hrs) was found to be 81 ng; in “Organ exposure in mice” (Brain, 2 hrs), 56 ng; in the data set “Organ exposure in mice” (Brain, 24 hrs), 30 ng; in “Organ exposure in mice” (Heart, 0.5 hrs) it was 1335 ng; in the data set “Organ exposure in mice” (Heart, 2 hrs), 1951 ng; in “Organ exposure in mice” (Heart, 24 hrs), 821 ng. For the same compound, the “Organ exposure, concentration” value in “Organ exposure in mice” (Kidney, 0.5 hrs) is 1817 ng; in “Organ exposure in mice” (Kidney, 2 hrs), 2179 ng; in “Organ exposure in mice” (Kidney, 24 hrs) it was 637 ng; in “Organ exposure in mice” (Liver, 0.5 hrs), 13897 ng; in the data set “Organ exposure in mice” (Liver, 2 hrs), 11563 ng; in “Organ exposure in mice” (Liver, 24 hrs), 864 ng. Also, the “Organ exposure, concentration” value came to 13003 ng in the data set “Organ exposure in mice” (Lungs, 0.5 hrs); 4178 ng in “Organ exposure in mice” (Lungs, 2 hrs); 661 ng in the data set “Organ exposure in mice” (Lungs, 24 hrs); 154.5 ng in the data set “Organ exposure in mice” (Muscle, 0.5 hrs); 324.5 ng in “Organ exposure in mice” (Muscle, 2 hrs); 168.33 ng in the data set “Organ exposure in mice” (Muscle, 24 hrs). Also, the figures for the MIC in the data set with S. aureus ATCC25923 and against S. epidermidis ATCC14990 were 0.25 µg/mL and 0.5 µg/mL, respectively. In addition, the MIC range in data set [1] is 0.25 to 0.5 µg/mL.
